Measurements from US9499551B2, “Substituted pyrrolo[2,3-b]pyridines for treating cancer or inflammatory diseases” (Confluence Life Sciences, Inc., priority 2014, dated 2016).

Key:
[1] = test system: IL-6 Production in Human Peripheral Blood Mononuclear Cells (PBMC); assay: LPS stimulated IL-6 production in PBMC cells; assay type: cell-based; details: read-out: IL-6 Production Inhibition IC50
Method: LPS Stimulated IL-6 Production in PBMC Cells:
Lipopolysaccharide (LPS) stimulated IL-6 Production in Human Peripheral Blood Mononuclear Cells (PBMC): The cellular efficacy of compound candidates is determined using peripheral blood mononuclear cells purified from human whole blood, based upon the methods of Burnette et al. (2009) Pharmacology, 84:42-60. PBMC produce a number of cytokines (IL6, IL8, IL1β and TNFα) in response to stimulation with LPS. To induce the production of inflammatory mediators, PBMC are plated at a final concentration of 2×10^5 cells/well in a 96 well flat bottom plate in DMEM medium supplemented with 10% fetal bovine serum, 100 units/ml penicillin and 100 μg/ml streptomycin (Gibco BRL Life Technologies). Cells are treated with or without inhibitors for 1-3 hrs then stimulated with 100 ng/ml LPS (serotype 011:B4, Sigma) for an additional 3 hrs at 37° C. with 5% CO2. The supernatants are removed and stored at −20° C. until they are to be assayed. The levels of inflammatory mediators are determined using commercial MSD cytokine kits (Meso Scale Discovery) as per the manufacturer's instructions. Standard curves are based on 7 steps of 4× serial dilutions, with a wide dynamic range of 10000 pg/ml to 2.4 pg/ml, and a blank. Lower limit of detection (LLOD) is calculated at the commonly used 3× the standard deviation of the blank.

[2] = biological target: T1, TAK1-TAB1 (Homo sapiens, UniProt O43318); assay: TAK1-TAB1 binding inhibitory potency (LanthaScreen competitive binding assay, kinase tracer-236); details: 10 nM TAK1-TAB1, 100 nM kinase tracer-236; read-out: TAK1-Tab Inhibition IC50
T1 sequence (O43318 with tags, fused parts or gaps limits assumed): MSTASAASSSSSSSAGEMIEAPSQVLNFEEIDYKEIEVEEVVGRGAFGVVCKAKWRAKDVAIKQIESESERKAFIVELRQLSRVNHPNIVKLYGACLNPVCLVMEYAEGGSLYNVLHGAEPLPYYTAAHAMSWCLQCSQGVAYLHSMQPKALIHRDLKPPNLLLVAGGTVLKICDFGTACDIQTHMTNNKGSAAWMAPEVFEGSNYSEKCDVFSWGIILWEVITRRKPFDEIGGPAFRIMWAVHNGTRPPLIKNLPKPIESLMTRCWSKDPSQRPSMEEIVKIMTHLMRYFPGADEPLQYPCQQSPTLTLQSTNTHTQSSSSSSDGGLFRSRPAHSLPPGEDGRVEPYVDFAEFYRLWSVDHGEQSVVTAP
Description: TAK1-TAB1 Binding Inhibitory Potency:
The ability of candidate compounds to interact with TAK1-TAB1 is quantitated by a competitive binding assay using the LanthaScreen technology developed by Life Technologies. This assay is based on the binding of a proprietary, Alexa Fluor® 647-labeled, ATP-competitive kinase inhibitor (kinase tracer-236) to the TAK1-TAB1 construct in presence of a europium-conjugated antibody, resulting in a FRET (fluorescence resonance energy transfer) signal. Displacement of the kinase tracer by compound results in a lower emission ratio upon excitation of the europium chelate. Candidate compounds are designed as potential irreversible inhibitors of TAK1-TAB1, capable of ligating to an active site cysteine residue. The time dependent nature of irreversible inhibition is investigated by performing the binding assay with and without a pre-incubation of compound and TAK1-TAB1.
The inhibitory potency of candidate compounds is measured in 20 mM HEPES pH 7.5, 10 mM MgCl2, 0.01% BSA, 0.0005% Tween-20, and 2% DMSO in the presence of 10 nM TAK1-TAB1, 2 nM Eu-anti-his antibody, and 100 nM kinase tracer-236 using a 384-well plate format. Background signal is defined in the absence of TAK1-TAB1 and uninhibited signal is defined in the presence of vehicle (2% DMSO) alone. Compounds were evaluated in an 11 point dose-response ranging from 20 μM to 0.34 nM. The binding assays are performed under two conditions to evaluate time dependence of inhibition. For the pre-incubation assay, TAK1-TAB1 and Eu-anti-his antibody are preincubated with compound or vehicle for two hours prior to the addition of kinase tracer. The non-preincubated assay is run in which TAK1-TAB1 and Eu-anti-his antibody are added to a mixture of compound and kinase tracer. IC50 values of compounds are determined using a 4 parameter logistical fit of emission ratio as a function of the concentration of compound. […]

| IC50 [2] | Compound | IC50 [1] |
| --- | --- | --- |
| ≤ 1000 nM | CN1CCN(c2cc(-c3cnc4[nH]cc(/C=C/C(N)=O)c4c3)ccn2)CC1 [Example 273, (E)-3-(5-(2-(4-methylpiperazin-1-yl)pyridin-4-yl)-1H-pyrrolo[2,3-b]pyridin-3-yl)acrylamide] | ≤ 1000 nM |
| ≤ 1000 nM | COc1cccc(-c2cnc3[nH]cc(/C=C/C(N)=O)c3c2)c1 [Example 11, (E)-3-(5-(3-Methoxyphenyl)-1H-pyrrolo[2,3-b]pyridin-3-yl)acrylamide] | ≤ 1000 nM |
| ≤ 1000 nM | CC(=O)c1cccc(-c2cnc3[nH]cc(/C=C/C(N)=O)c3c2)c1 [Example 244, (E)-3-(5-(3-acetylphenyl)-1H-pyrrolo[2,3-b]pyridin-3-yl)acrylamide] | ≤ 1000 nM |
| ≤ 1000 nM | CC(C)(O)COc1ccc(-c2cnc3[nH]cc(/C=C/C(N)=O)c3c2)cn1 [Example 291, (E)-3-(5-(6-(2-hydroxy-2-methylpropoxy)pyridin-3-yl)-1H-pyrrolo[2,3-b]pyridin-3-yl)acrylamide] | ≤ 1000 nM |
| ≤ 1000 nM | NC(=O)/C=C/c1c[nH]c2ncc(N3CCN(C(=O)c4ncc(F)cc4F)CC3)cc12 [Example 288, (E)-3-(5-(4-(3,5-difluoropicolinoyl)piperazin-1-yl)-1H-pyrrolo[2,3-b]pyridin-3-yl)acrylamide] | > 1000 nM |
| ≤ 1000 nM | N#Cc1ccc(-c2cnc3[nH]cc(/C=C/C(N)=O)c3n2)cn1 [Example 285, (E)-3-(2-(6-cyanopyridin-3-yl)-5H-pyrrolo[2,3-b]pyrazin-7-yl)acrylamide] | ≤ 1000 nM |
| ≤ 1000 nM | CC(C)Oc1ccc(-c2cnc3[nH]cc(/C=C/C(N)=O)c3c2)cn1 [Example 260, (E)-3-(5-(6-isopropoxypyridin-3-yl)-1H-pyrrolo[2,3-b]pyridin-3-yl)acrylamide] | ≤ 1000 nM |
| ≤ 1000 nM | NC(=O)/C=C/c1c[nH]c2ncc(-c3cncnc3)cc12 [Example 286, (E)-3-(5-(pyrimidin-5-yl)-1H-pyrrolo[2,3-b]pyridin-3-yl)acrylamide] | > 1000 nM |
| ≤ 1000 nM | CC(C)Nc1cnc2[nH]cc(/C=C/C(N)=O)c2c1 [Example 9, 3-(5-Isopropylamino-1H-pyrrolo[2,3-b]pyridin-3-yl)-acrylamide] | ≤ 1000 nM |
| ≤ 1000 nM | NC(=O)/C=C/c1c[nH]c2ncc(Cc3ccc(F)cc3)cc12 [Example 274, (E)-3-(5-(4-fluorobenzyl)-1H-pyrrolo[2,3-b]pyridin-3-yl)acrylamide] | ≤ 1000 nM |
| ≤ 1000 nM | NC(=O)/C=C/c1c[nH]c2ncc(Cc3ccccc3)cc12 [Example 39] | ≤ 1000 nM |
| ≤ 1000 nM | CC(C)Nc1cnc2[nH]cc(/C=C/C(N)=O)c2n1 [Example 10, 3-(2-Isopropylamino-5H-pyrrolo[2,3-b]pyrazin-7-yl)-acrylamide] | ≤ 1000 nM |
| ≤ 1000 nM | CC(C)(O)COc1ccc(-c2cnc3[nH]cc(/C=C/C(N)=O)c3c2)cc1 [Example 32, (E)-3-(5-(4-(2-hydroxy-2-methylpropoxy)phenyl)-1H-pyrrolo[2,3-b]pyridin-3-yl)acrylamide] | ≤ 1000 nM |
| ≤ 1000 nM | NC(=O)/C=C/c1c[nH]c2ncc(-c3ccc(C(=O)N4CCCCC4)cc3)cc12 [Example 262, (E)-3-(5-(4-(piperidine-1-carbonyl)phenyl)-1H-pyrrolo[2,3-b]pyridin-3-yl)acrylamide] | ≤ 1000 nM |
| ≤ 1000 nM | N#C/C=C/c1c[nH]c2ncc(N3CCN(C(=O)c4ccccc4)CC3)cc12 [Example 279, (E)-3-(5-(4-benzoylpiperazin-1-yl)-1H-pyrrolo[2,3-b]pyridin-3-yl)acrylonitrile] | > 1000 nM |
| ≤ 1000 nM | CC(C)NC(=O)c1ccc(-c2cnc3[nH]cc(/C=C/C(N)=O)c3c2)nc1 [Example 295, (E)-6-(3-(3-amino-3-oxoprop-1-en-1-yl)-1H-pyrrolo[2,3-b]pyridin-5-yl)-N-isopropyl-nicotinamide] | > 1000 nM |
| ≤ 1000 nM | CC(C)Oc1cnc2[nH]cc(/C=C/C(N)=O)c2c1 [Example 8, 3-(5-Isopropoxy-1H-pyrrolo[2,3-b]pyridin-3-yl)-acrylamide] | ≤ 1000 nM |
| ≤ 1000 nM | Cn1cc(-c2cnc3[nH]cc(/C=C/C(N)=O)c3n2)cn1 [Example 6, (E)-3-(2-(1-Methyl-1H-pyrazol-4-yl)-5H-pyrrolo[2,3-b]pyrazin-7-yl)acrylamide] | ≤ 1000 nM |
| ≤ 1000 nM | CC(C)Oc1cc(-c2cnc3[nH]cc(/C=C/C(N)=O)c3c2)cc(C(F)(F)F)n1 [Example 272, (E)-3-(5-(2-isopropoxy-6-(trifluoromethyl)pyridin-4-yl)-1H-pyrrolo[2,3-b]pyridin-3-yl)acrylamide] | ≤ 1000 nM |
| ≤ 1000 nM | CC(C)(C)C(=O)N1CCN(c2cnc3[nH]cc(/C=C/C(N)=O)c3c2)CC1 [Example 264, (E)-3-(5-(4-pivaloylpiperazin-1-yl)-1H-pyrrolo[2,3-b]pyridin-3-yl)acrylamide] | ≤ 1000 nM |
| ≤ 1000 nM | COc1ccc(-c2cnc3[nH]cc(/C=C/C(N)=O)c3c2)cn1 [Example 20, (E)-3-(5-(6-methoxypyridin-3-yl)-1H-pyrrolo[2,3-b]pyridin-3-yl)acrylamide] | ≤ 1000 nM |
| ≤ 1000 nM | N#C/C(=C\c1c[nH]c2ncc(-c3ccccc3)cc12)C(N)=O [Example 226, (E)-2-Cyano-3-(5-phenyl-1H-pyrrolo[2,3-b]pyridin-3-yl)acrylamide] | ≤ 1000 nM |
| ≤ 1000 nM | NC(=O)/C=C/c1c[nH]c2ncc(-c3cnc4ccccc4c3)nc12 [Example 263, (E)-3-(2-(quinolin-3-yl)-5H-pyrrolo[2,3-b]pyrazin-7-yl)acrylamide] | ≤ 1000 nM |
| ≤ 1000 nM | NC(=O)/C=C/c1c[nH]c2ncc(-c3ccc(F)cc3F)nc12 [Example 248, (E)-3-(2-(2,4-difluorophenyl)-5H-pyrrolo[2,3-b]pyrazin-7-yl)acrylamide] | ≤ 1000 nM |
| > 1000 nM | C=CC(=O)Nc1c[nH]c2ncc(-c3ccccc3)cc12 [Example 236, N-(5-phenyl-1H-pyrrolo[2,3-b]pyridin-3-yl)acrylamide] | – |
| ≤ 1000 nM | NC(=O)/C=C/c1c[nH]c2ncc(-c3ccc(C(=O)C(F)(F)F)cc3)cc12 [Example 319, (E)-3-(5-(4-(2,2,2-trifluoroacetyl)phenyl)-1H-pyrrolo[2,3-b]pyridin-3-yl)acrylamide] | – |
| ≤ 1000 nM | CC(C)(O)c1cc(-c2cnc3[nH]cc(/C=C/C(N)=O)c3c2)ccn1 [Example 317, (E)-3-(5-(2-(2-hydroxypropan-2-yl)pyridin-4-yl)-1H-pyrrolo[2,3-b]pyridin-3-yl)acrylamide] | – |
| > 1000 nM | NC(=O)/C=C/c1c[nH]c2ncc(-c3cccnc3)nc12 [Example 255, (E)-3-(2-(pyridin-3-yl)-5H-pyrrolo[2,3-b]pyrazin-7-yl)acrylamide] | – |
| ≤ 1000 nM | NC(=O)/C=C/c1c[nH]c2ncc(-c3ccc4c(c3)CCC4=O)nc12 [Example 343, (E)-3-(2-(1-oxo-2,3-dihydro-1H-inden-5-yl)-5H-pyrrolo[2,3-b]pyrazin-7-yl)acrylamide] | – |
